Assay results from BindingDB's records for doi:10.1021/jm0704898 (Georgetown University Medical Center, 2007).
pKi: −log10 of the molar value. Positions of bridges follow the written chain, without caps; N, C: chain ends. Residues, ends and D or L forms follow the SMILES beside them.

What was measured:
Prothrombin = Prothrombin (Bos taurus, UniProt P00735); assay: Enzyme Inhibition Assay; details: pH 8.5; 22 °C
Description: (§1) The enzyme reaction was initiated by adding fluorescence peptide substrate to reaction mixture containing enzyme and test compounds. […] Hydrolysis rates were recorded in presence of six to seven different concentrations of inhibitor.

[1] = target: T1, Suppressor of tumorigenicity 14 protein (Homo sapiens, UniProt Q9Y5Y6); assay: Enzyme Inhibition Assay; details: pH 8.5; 22 °C
T1 sequence (Q9Y5Y6 whole entry): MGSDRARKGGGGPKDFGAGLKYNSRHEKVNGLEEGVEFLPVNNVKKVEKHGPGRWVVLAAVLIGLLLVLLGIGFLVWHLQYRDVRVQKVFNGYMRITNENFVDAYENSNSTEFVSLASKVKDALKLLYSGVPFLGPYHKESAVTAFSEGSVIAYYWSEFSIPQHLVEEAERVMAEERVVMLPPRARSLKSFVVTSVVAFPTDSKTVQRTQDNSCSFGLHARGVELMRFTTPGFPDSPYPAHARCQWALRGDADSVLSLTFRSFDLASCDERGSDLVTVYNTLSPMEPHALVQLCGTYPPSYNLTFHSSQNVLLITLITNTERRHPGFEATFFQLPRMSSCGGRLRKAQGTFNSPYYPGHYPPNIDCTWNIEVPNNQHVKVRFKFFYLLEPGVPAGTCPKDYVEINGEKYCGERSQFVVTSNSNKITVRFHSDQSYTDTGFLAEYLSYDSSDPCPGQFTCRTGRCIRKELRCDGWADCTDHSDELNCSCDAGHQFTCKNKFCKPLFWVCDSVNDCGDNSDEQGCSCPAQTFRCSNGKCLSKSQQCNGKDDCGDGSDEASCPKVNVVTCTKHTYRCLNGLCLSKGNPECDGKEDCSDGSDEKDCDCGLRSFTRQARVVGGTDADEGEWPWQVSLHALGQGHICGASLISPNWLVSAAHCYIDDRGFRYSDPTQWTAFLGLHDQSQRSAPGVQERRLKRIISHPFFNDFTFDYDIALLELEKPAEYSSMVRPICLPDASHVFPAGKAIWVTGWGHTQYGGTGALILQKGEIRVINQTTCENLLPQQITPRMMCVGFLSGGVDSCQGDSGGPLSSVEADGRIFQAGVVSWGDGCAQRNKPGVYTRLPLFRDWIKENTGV
Description: as §1

Row | pKi (Prothrombin) | pKi [1] | SMILES
1 | 4.34 | 4.55 | CC[C@H](C)[C@@H]1NC(=O)[C@@H]2CCCN2C(=O)[C@@H]2CCCN2C(=O)[C@H]([C@@H](C)CC)NC(=O)[C@H](CO)NC(=O)[C@H](CCCCCN)NC(=O)[C@H]([C@@H](C)O)NC(=O)[C@@H]2CSSC[C@H](NC1=O)C(=O)N[C@@H](Cc1ccccc1)C(=O)N1CCC[C@H]1C(=O)N[C@@H](CC(=O)O)C(=O)NCC(=O)N[C@@H](CCCN=C(N)N)C(=O)N2 [2-[(1R,4S,7S,13S,19S,22S,25S,28S,31R,34S,40S,43S,49S)-25-(5-aminopentyl)-49-benzyl-4,19-bis[(2S)-butan-2-yl]-34-(3-carbamimidamidopropyl)-28-[(1R)-1-hydroxyethyl]-22-(hydroxymethyl)-3,6,12,18,21,24,27,30,33,36,39,42,48,51-tetradecaoxo-53,54-dithia-2,5,11,17,20,23,26,29,32,35,38,41,47,50-tetradecaazapentacyclo[29.20.4.0^{7,11}.0^{13,17}.0^{43,47}]pentapentacontan-40-yl]acetic acid]
2 | 5.12 | 6.07 | CC[C@H](C)[C@@H]1NC(=O)[C@@H]2CCCN2C(=O)[C@@H]2CCCN2C(=O)[C@H]([C@@H](C)CC)NC(=O)[C@H](CO)NC(=O)[C@H](CCCCN)NC(=O)[C@H]([C@@H](C)O)NC(=O)[C@@H]2CSSC[C@H](NC1=O)C(=O)N[C@@H](Cc1ccccc1)C(=O)N1CCC[C@H]1C(=O)N[C@@H](CC(=O)O)C(=O)NCC(=O)N[C@@H](CCCCN=C(N)N)C(=O)N2 [2-[(1R,4S,7S,13S,19S,22S,25S,28S,31R,34S,40S,43S,49S)-25-(4-aminobutyl)-49-benzyl-4,19-bis[(2S)-butan-2-yl]-34-(4-carbamimidamidobutyl)-28-[(1R)-1-hydroxyethyl]-22-(hydroxymethyl)-3,6,12,18,21,24,27,30,33,36,39,42,48,51-tetradecaoxo-53,54-dithia-2,5,11,17,20,23,26,29,32,35,38,41,47,50-tetradecaazapentacyclo[29.20.4.0^{7,11}.0^{13,17}.0^{43,47}]pentapentacontan-40-yl]acetic acid]
3 | < 2.60 | 5.63 | CC[C@H](C)[C@@H]1NC(=O)[C@H](CO)NC(=O)[C@H](CCCCN)NC(=O)[C@H]([C@@H](C)O)NC(=O)[C@@H]2CSSC[C@H](NC(=O)[C@H](CCC(N)=O)NC(=O)[C@@H]3CCCN3C(=O)[C@@H]3CCCN3C1=O)C(=O)N[C@@H](Cc1ccccc1)C(=O)N1CCC[C@H]1C(=O)N[C@@H](CC(=O)O)C(=O)NCC(=O)N[C@@H](CCCN=C(N)N)C(=O)N2 [2-[(1R,4S,7S,13S,19S,22S,25S,28S,31R,34S,40S,43S,49S)-25-(4-aminobutyl)-49-benzyl-19-[(2S)-butan-2-yl]-34-(3-carbamimidamidopropyl)-4-(2-carbamoylethyl)-28-[(1R)-1-hydroxyethyl]-22-(hydroxymethyl)-3,6,12,18,21,24,27,30,33,36,39,42,48,51-tetradecaoxo-53,54-dithia-2,5,11,17,20,23,26,29,32,35,38,41,47,50-tetradecaazapentacyclo[29.20.4.0^{7,11}.0^{13,17}.0^{43,47}]pentapentacontan-40-yl]acetic acid] (cyclo(CFPDGRCTKSIPPQ); disulfide 1-7)

The next lines start with the compound.

Row | SMILES | pKi (Prothrombin) | pKi [1]
4 | CC[C@H](C)[C@@H]1NC(=O)[C@@H]2CCCN2C(=O)[C@@H]2CCCN2C(=O)[C@H]([C@@H](C)CC)NC(=O)[C@H](CO)NC(=O)[C@H](CCCCN)NC(=O)[C@H]([C@@H](C)O)NC(=O)[C@@H]2CSCSC[C@H](NC1=O)C(=O)N[C@@H](Cc1ccccc1)C(=O)N1CCC[C@H]1C(=O)N[C@@H](CC(=O)O)C(=O)NCC(=O)N[C@@H](CCCN=C(N)N)C(=O)N2 [2-[(1R,4S,7S,13S,19S,22S,25S,28S,31R,34S,40S,43S,49S)-25-(4-aminobutyl)-49-benzyl-4,19-bis[(2S)-butan-2-yl]-34-(3-carbamimidamidopropyl)-28-[(1R)-1-hydroxyethyl]-22-(hydroxymethyl)-3,6,12,18,21,24,27,30,33,36,39,42,48,51-tetradecaoxo-53,55-dithia-2,5,11,17,20,23,26,29,32,35,38,41,47,50-tetradecaazapentacyclo[29.20.5.0^{7,11}.0^{13,17}.0^{43,47}]hexapentacontan-40-yl]acetic acid] | 5.00 | 6.80
5 | CC[C@H](C)[C@@H]1NC(=O)[C@@H]2CCCN2C(=O)[C@@H]2CCCN2C(=O)[C@H]([C@@H](C)CC)NC(=O)[C@H](CO)NC(=O)[C@H](CCCCN)NC(=O)[C@H]([C@@H](C)O)NC(=O)[C@@H]2CSSC[C@H](NC1=O)C(=O)N[C@@H](Cc1ccc(-c3ccccc3)cc1)C(=O)N1CCC[C@H]1C(=O)N[C@@H](CC(=O)O)C(=O)NCC(=O)N[C@@H](CCCN=C(N)N)C(=O)N2 [2-[(1R,4S,7S,13S,19S,22S,25S,28S,31R,34S,40S,43S,49S)-25-(4-aminobutyl)-4,19-bis[(2S)-butan-2-yl]-34-(3-carbamimidamidopropyl)-28-[(1R)-1-hydroxyethyl]-22-(hydroxymethyl)-3,6,12,18,21,24,27,30,33,36,39,42,48,51-tetradecaoxo-49-[(4-phenylphenyl)methyl]-53,54-dithia-2,5,11,17,20,23,26,29,32,35,38,41,47,50-tetradecaazapentacyclo[29.20.4.0^{7,11}.0^{13,17}.0^{43,47}]pentapentacontan-40-yl]acetic acid] | 4.59 | 6.00
6 | CC[C@H](C)[C@@H]1NC(=O)[C@@H]2CCCN2C(=O)[C@@H]2CCCN2C(=O)[C@H]([C@@H](C)CC)NC(=O)[C@H](CO)NC(=O)[C@H](CCCCN)NC(=O)[C@H]([C@@H](C)O)NC(=O)[C@@H]2CSSC[C@H](NC1=O)C(=O)N[C@@H](Cc1c(F)c(F)c(F)c(F)c1F)C(=O)N1CCC[C@H]1C(=O)N[C@@H](CC(=O)O)C(=O)NCC(=O)N[C@@H](CCCN=C(N)N)C(=O)N2 | 4.47 | 6.05
